Experimental data as given in article PMC9995496, “A screen for MeCP2-TBL1 interaction inhibitors using a luminescence-based assay” (Scientific Reports, 2023).
Structures can show the parent of a compound that is named as a salt. Where two headings read alike, the source gives them in different places.

Tested on: PRKACA-PRKAR2A interaction (SmBiT-PRKACA / LgBiT-PRKAR2A), protein kinase A
Set-up: NanoLuc complementation counter-screen in cell extract, PRKACA with PRKAR2A, loss of luminescence, detects NanoLuc interference
Conditions: 0.5 h, 20 µM, inhibitor
[1] = counter-screen for NanoLuc interference

Structure (SMILES)	Inh (PKA) [1] [%]	also measured
COc1ccc(C(CN(C)C)C2(O)CCCCC2)cc1 (stereo not drawn) [UM0141884:01, Venlafaxine]	-0.1027	
CC(c1cc2ccccc2s1)N(O)C(N)=O (stereo not drawn) [UM0141885:01, Zileuton]	2.302	
c1cnc2cc3c(cc2n1)[C@@H]1CNC[C@H]3C1 [UM0141886:01, Varenicline Tartrate]	1.343	
COc1ccc(S(=O)(=O)N(C(C)=O)c2ccccc2/C=C/c2cc[n+]([O-])cc2)cc1 [UM0141887:01, HMN-214]	4.215	
Nc1nc(F)nc2c1ncn2[C@@H]1O[C@H](CO)[C@@H](O)[C@@H]1O [UM0141888:01, Fludarabine]	1.153	
CC(=O)Nc1nc(C)c(-c2ccc(Cl)c(S(=O)(=O)NCCO)c2)s1 [UM0141889:01, PIK-93]	6.642	
CCN1CCN(Cc2ccc(-c3cc4c(N[C@H](C)c5ccccc5)ncnc4[nH]3)cc2)CC1 [UM0141890:01, AEE788 (NVP-AEE788)]	7.14	
CC(C)CC(=O)Nc1n[nH]c2c1CN(C(=O)C1CCN(C)CC1)C2(C)C [UM0141891:01, PHA-793887]	3.326	
Cc1ccc(C(=O)Nc2ccc(CN3CCN(C)CC3)c(C(F)(F)F)c2)cc1C#Cc1cnc2cccnn12 [UM0141892:01, Ponatinib (AP24534)]	38.47	
Cc1cc([C@@H](C)Nc2ccccc2C(=O)O)c2nc(N3CCOCC3)cc(=O)n2c1 [UM0141893:01, AZD6482]	55.75	
O=C(NCc1ccccc1)c1csc(Nc2ccncn2)n1 [UM0141894:01, Thiazovivin]	-0.9736	
CC(C)(C)Cn1c(N)nc2ccc(-c3[nH]c(C(C)(C)C)nc3-c3ccc(F)cc3)nc21 [UM0141895:01, LY2228820]	34.84	
O=C(NC[C@H](O)CO)c1ccncc1Nc1ccc(I)cc1F [UM0141896:01, Pimasertib (AS-703026)]	20.8	
Cc1cccc(-c2[nH]c(C(C)(C)C)nc2-c2ccc3nccnc3c2)n1 [UM0141897:01, SB525334]	4.915	
CC1=C(C(=O)Nc2cc3cn[nH]c3cc2F)C(c2ccc(C(F)(F)F)cc2)CC(=O)N1 (stereo not drawn) [UM0141898:01, GSK429286A]	8.844	
Clc1ccc(C2(c3ccc(-c4cn[nH]c4)cc3)CCNCC2)cc1 [UM0141900:01, AT7867]	29.71	
CCOc1ccn(-c2ccc(F)cc2)c(=O)c1C(=O)Nc1ccc(Oc2ccnc(N)c2Cl)c(F)c1 [UM0141902:01, BMS-777607]	68.15	
O=C(NOCC(O)CO)c1cc(Br)c(F)c(F)c1Nc1ccc(I)cc1F (stereo not drawn) [UM0141903:01, PD318088]	48.65	
CCOC(=O)c1ccc(C#Cc2ccc3c(c2)C(C)(C)CCS3)nc1 [UM0141904:01, Tazarotene]	17.58	
O=C(NC1CCNCC1)c1n[nH]cc1NC(=O)c1c(Cl)cccc1Cl [UM0141905:01, AT7519]	0.5831	
O=S(=O)(c1cccc2cnccc12)N1CCCNCC1 [UM0141906:01, Fasudil (HA-1077) HCl]	33.96	
CCCNC(=O)Nc1ccc(Oc2ncnc3cc(OC)c(OC)cc23)cc1Cl [UM0141907:01, KRN 633]	0.03165	
O=C(O)c1cc(/N=N/c2ccc(S(=O)(=O)Nc3ccccn3)cc2)ccc1O [UM0141908:01, Sulfasalazine]	56.84	
Nc1ccn(C[C@@H](CO)OCP(=O)(O)O)c(=O)n1 [UM0141909:01, Cidofovir]	-0.4944	
CN(C)Cc1cccc(N/C(=C2\C(=O)Nc3cc(C(N)=O)ccc32)c2ccccc2)c1 [UM0141912:01, BIX 02188]	13.5	
CN1CCCCC1Cn1cc(C(=O)c2cc([N+](=O)[O-])ccc2I)c2ccccc21 (stereo not drawn) [UM0141913:01, AM1241]		Inh (PKA): 12.3%
CCOc1ccc(Cc2cc([C@@H]3O[C@H](CO)[C@@H](O)[C@H](O)[C@H]3O)ccc2Cl)cc1 [UM0141914:01, Dapagliflozin]	0.9919	
COc1cc(Nc2ncc(F)c(Nc3ccc4c(n3)NC(=O)C(C)(C)O4)n2)cc(OC)c1OC [UM0141915:01, R406 (free base)]		Inh (PKA) (counter-screen for NanoLuc interference, Inh (PKA)): 51.96%
CCCCCCCCCCCCc1ccc(S(=O)(=O)Nc2nncs2)cc1 [UM0141916:01, PHT-427]	11.59	
Cc1nc(-c2ccc(OCC(C)C)c(C#N)c2)sc1C(=O)O [UM0141917:01, Febuxostat]	17.81	
